Measured values from patent publication US20160002180A1, “ANTIVIRAL COMPOUNDS” (priority 2013, published 2016).

What was measured:
Assay in all cases: microbe, parasite or virus in culture
Type in all cases: cell-based
[1] = test system: HCVpp GT-1b (pseudotyped HCV GT1b particles, E1 and E2 envelope proteins of GT1b Con1 strain); conditions: Hepatitis C virus, 72 h, read-out: HCVpp GT-1b (EC50, μM)
[2] = test system: VSVpp (pseudotyped VSV G particles); conditions: Vesicular stomatitis virus, 72 h, read-out: VSVpp (EC50, μM)
[3] = test system: HCVpp GT-1a (pseudotyped HCV GT1a particles, E1 and E2 envelope proteins of GT1a H77 strain); conditions: Hepatitis C virus, 72 h, read-out: HCVpp GT-1a (EC50, μM)

| Compound | EC50 [1] | EC50 [2] | EC50 [3] |
| --- | --- | --- | --- |
| Cc1nc(Nc2cc(Cl)cc(Cl)c2)n[nH]1 [Compound 1, (3,5-Dichloro-phenyl)-(5-methyl-1H-[1,2,4]triazol-3-yl)-amine] | 6.25 µM | 100 µM | 1.99 µM |
| Clc1cc(Cl)cc(Nc2n[nH]c(-c3ccccc3)n2)c1 [Compound 2, (3,5-Dichloro-phenyl)-(5-phenyl-1H-[1,2,4]triazol-3-yl)-amine] | 27.5 µM | 30.1 µM | 26.7 µM |
| NCc1nc(Nc2cc(Cl)cc(Cl)c2)n[nH]1 [Compound 3, (5-Aminomethyl-1H-[1,2,4]triazol-3-yl)-(3,5-dichloro-phenyl)-amine] | 100 µM | 100 µM | – |
| Fc1n[nH]c(Nc2cc(Cl)cc(Cl)c2)n1 [Compound 4, (3,5-Dichloro-phenyl)-(5-fluoro-2H-[1,2,4]triazol-3-yl)-amine] | 30.1 µM | 30.9 µM | 28.7 µM |
| COCc1n[nH]c(Nc2cc(Cl)cc(Cl)c2)n1 [Compound 5, (3,5-Dichloro-phenyl)-(5-methoxymethyl-2H-[1,2,4]triazol-3-yl)-amine] | 24.2 µM | 100 µM | 4.13 µM |
| COCc1n[nH]c(Nc2cc(Cl)nc(Cl)c2)n1 [Compound 6, (2,6-Dichloro-pyridin-4-yl)-(5-methoxymethyl-2H-[1,2,4]triazol-3-yl)-amine] | 35.5 µM | 100 µM | 4.59 µM |
| Clc1cc(Cl)cc(Nc2nc(Br)n[nH]2)c1 [Compound 7, (5-Bromo-2H-[1,2,4]triazol-3-yl)-(3,5-dichloro-phenyl)-amine] | 20.8 µM | 28.2 µM | 16.5 µM |
| COc1n[nH]c(Nc2cc(Cl)cc(Cl)c2)n1 [Compound 8, (3,5-Dichloro-phenyl)-(5-methoxy-2H-[1,2,4]triazol-3-yl)-amine] | 52.6 µM | 100 µM | 15.9 µM |
| COc1n[nH]c(Nc2cc(Cl)nc(Cl)c2)n1 [Compound 9, (2,6-Dichloro-pyridin-4-yl)-(5-methoxy-2H-[1,2,4]triazol-3-yl)-amine] | 45.3 µM | 98 µM | 13.2 µM |
| COc1n[nH]c(Nc2ccc(C#N)c(C(F)(F)F)c2)n1 [Compound 10, 4-(5-Methoxy-2H-[1,2,4]triazol-3-ylamino)-2-trifluoromethyl-benzonitrile] | 7.83 µM | 8.3 µM | 7.53 µM |
| COc1n[nH]c(Nc2cc(Cl)c(Br)c(Cl)c2)n1 [Compound 11, (4-Bromo-3,5-dichloro-phenyl)-(5-methoxy-2H-[1,2,4]triazol-3-yl)-amine] | 7.23 µM | 12.7 µM | 2.1 µM |
| Clc1cc(Cl)cc(Nc2nc(Cl)n[nH]2)c1 [Compound 12, (5-Chloro-2H-[1,2,4]triazol-3-yl)-(3,5-dichloro-phenyl)-amine] | – | 14 µM | 13.8 µM |
| CS(=O)(=O)c1n[nH]c(Nc2cc(Cl)cc(Cl)c2)n1 [Compound 13, (3,5-Dichloro-phenyl)-(5-methanesulfonyl-2H-[1,2,4]triazol-3-yl)-amine] | – | 100 µM | 100 µM |
| CS(=O)(=O)c1n[nH]c(Nc2cc(Cl)c(Br)c(Cl)c2)n1 [Compound 14, (4-Bromo-3,5-dichloro-phenyl)-(5-methanesulfonyl-2H-[1,2,4]triazol-3-yl)-amine] | – | 100 µM | 100 µM |
| CN(C)c1nc(Nc2cc(Cl)cc(Cl)c2)n[nH]1 [Compound 15, N^3-(3,5-Dichloro-phenyl)-N^5,N^5-dimethyl-1H-[1,2,4]triazole-3,5-diamine] | – | 100 µM | 24.8 µM |
| CN(C)c1nc(Nc2cc(Cl)c(Br)c(Cl)c2)n[nH]1 [Compound 16, N^3-(4-Bromo-3,5-dichloro-phenyl)-N^5,N^5-dimethyl-1H-[1,2,4]triazole-3,5-diamine] | – | 43.1 µM | 1.58 µM |
| Clc1cc(Nc2ncn[nH]2)cc(Cl)c1Cl [Compound 17, (2H-[1,2,4]Triazol-3-yl)-(3,4,5-trichloro-phenyl)-amine] | – | 28.2 µM | 0.392 µM |

| Compound | EC50 [1] | EC50 [2] | EC50 [3] |
| --- | --- | --- | --- |
| Clc1cc(Nc2ncn[nH]2)cc(Cl)c1Br [Compound 18, (4-Bromo-3,5-dichloro-phenyl)-(2H-[1,2,4]triazol-3-yl)-amine] | 2.52 µM | 22.4 µM | 0.252 µM |
| CNc1nc(Nc2cc(Cl)cc(Cl)c2)n[nH]1 [Compound 19, N^3-(3,5-Dichloro-phenyl)-N^5-methyl-1H-[1,2,4]triazole-3,5-diamine] | – | 100 µM | 3.41 µM |
| N#Cc1c(Cl)cc(Nc2ncn[nH]2)cc1Cl [Compound 20, 2,6-Dichloro-4-(2H-[1,2,4]triazol-3-ylamino)-benzonitrile] | 1.66 µM | 100 µM | 0.121 µM |
| CNc1nc(Nc2ccc(C#N)c(C(F)(F)F)c2)n[nH]1 [Compound 21, 4-(5-Methylamino-1H-[1,2,4]triazol-3-ylamino)-2-trifluoromethyl-benzonitrile] | 5.01 µM | 24.9 µM | 1.26 µM |
| FC(F)(F)c1nc(Nc2cc(Cl)cc(Cl)c2)n[nH]1 [Compound 22, (3,5-Dichloro-phenyl)-(5-trifluoromethyl-1H-[1,2,4]triazol-3-yl)-amine] | 5.63 µM | 6.7 µM | 5.5 µM |
| Clc1cc(Cl)cc(Nc2ncn(Cc3ccccc3)n2)c1 [Compound 23, (1-Benzyl-1H-[1,2,4]triazol-3-yl)-(3,5-dichloro-phenyl)-amine] | 53 µM | 46.5 µM | 28.9 µM |
| Clc1cc(Cl)cc(Nc2ncnn2Cc2ccccc2)c1 [Compound 24, (2-Benzyl-2H-[1,2,4]triazol-3-yl)-(3,5-dichloro-phenyl)-amine] | 32.5 µM | 34.9 µM | 27.1 µM |
| Clc1cc(Cl)cc(Nc2nc[nH]n2)c1 [Compound 25, (3,5-Dichloro-phenyl)-(1H-[1,2,4]triazol-3-yl)-amine] | 5.17 µM | 97 µM | 1.06 µM |
| Fc1c(Cl)cc(Nc2ncnn2Cc2ccccc2)cc1Cl [Compound 26, (2-Benzyl-2H-[1,2,4]triazol-3-yl)-(3,5-dichloro-4-fluoro-phenyl)-amine] | 27.1 µM | 17.5 µM | 16.2 µM |
| Fc1c(Cl)cc(Nc2ncn(Cc3ccccc3)n2)cc1Cl [Compound 27, (1-Benzyl-1H-[1,2,4]triazol-3-yl)-(3,5-dichloro-4-fluoro-phenyl)-amine] | 8.91 µM | 9.11 µM | 6.13 µM |
| Fc1c(Cl)cc(Nc2nc[nH]n2)cc1Cl [Compound 28, (3,5-Dichloro-4-fluoro-phenyl)-(1H-[1,2,4]triazol-3-yl)-amine] | 3.77 µM | 84.1 µM | 0.477 µM |
| Nc1cccc(Nc2ncn(Cc3ccccc3)n2)c1 [Compound 29, N-(1-Benzyl-1H-[1,2,4]triazol-3-yl)-benzene-1,3-diamine] | 87.2 µM | 100 µM | 95 µM |
| Clc1cc(Nc2nc[nH]n2)cc(Cl)n1 [Compound 30, (2,6-Dichloro-pyridin-4-yl)-(1H-[1,2,4]triazol-3-yl)-amine] | – | 100 µM | 1.06 µM |
| Fc1c(Cl)cc(Nc2n[nH]c(N3CCOCC3)n2)cc1Cl [Compound 31, (3,5-Dichloro-4-fluoro-phenyl)-(5-morpholin-4-yl-1H-[1,2,4]triazol-3-yl)-amine] | – | 29.9 µM | 25.8 µM |
| CC(C)c1nc(Nc2cc(Cl)cc(Cl)c2)n[nH]1 [Compound 32, (3,5-Dichloro-phenyl)-(5-isopropyl-1H-[1,2,4]triazol-3-yl)-amine] | – | 33.8 µM | 22.1 µM |
| CC(C)Cc1nc(Nc2cc(Cl)cc(Cl)c2)n[nH]1 [Compound 33, (3,5-Dichloro-phenyl)-(5-isobutyl-1H-[1,2,4]triazol-3-yl)-amine] | 61.7 µM | 100 µM | 1.26 µM |
| Clc1cc(Cl)cc(Nc2n[nH]c(Cc3ccccc3)n2)c1 [Compound 34, (5-Benzyl-1H-[1,2,4]triazol-3-yl)-(3,5-dichloro-phenyl)-amine] | 13.5 µM | 38.9 µM | 0.785 µM |
